Test results published in patent US20240360094A1, “COMPOUND FOR TREATING DISEASES RELATED TO CEREBRAL ISCHEMIC INJURY” (JIANGSU CHIA TAI FENGHAI PHARMACEUTICAL CO., LTD., priority 2021, published 2024).
Read-outs that look alike come from different tables or passages of the source. Marks after values point to notes of the source that are not given here.

Tests used:
[1] = tested on: Middle cerebral artery occlusion (MCAO) models of SD rats; assay: Rat cerebral stroke model (MCAO), 28 days, pathological examination of brain; format: in vivo
Method: Middle cerebral artery occlusion (MCAO) models of SD rata were constructed by using the suture occlusion method. The rats were administered with the test compound for 28 consecutive days. The pharmacodynamic evaluation on the test compound for cerebral stroke was obtained based on general observation and neurobehavioral assessment. After anesthesia induction with 3.0% isoflurane in SD rats (240-280 g), the operation was performed and the right common carotid artery (CCA), and the right-side neck area was dissected to reveal the right common carotid artery (CCA), external carotid artery (ECA) and internal carotid artery (ICA). The ECA was ligated. The ICA was temporarily occluded. Sutures were threaded at both the proximal end and the distal end of CCA. The distal end was securely ligated, and a loosely tied knot was placed at the proximal end. A small incision was made on the CCA between these two sutures. A No. 4-0 suture was inserted through the incision of CCA and slowly and gently pushed into the ICA. The threading was stopped temporarily when reaching the artery clamp of ICA. The pre-ligation suture was further tightened. The artery clamp blocking the blood flow in the ICA was removed, allowing the suture occlusion to be advanced into the ICA until it entered the intracranial region. […] The insertion was stopped at the moment, and the time was recorded. The artery clamp on the CCA was removed and the incision was closed after no active bleeding was observed. The ischemic rats were placed at room temperature to keep their body temperature at 37° C., and anesthesia induction could be carried out 120 min later. The suture was slowly and gradually withdrawn when the rats were maintained under anesthesia, so that the proximal end of the suture returned to the ECA, thereby initiating reperfusion of the middle cerebral artery. Animals received the designated dosage immediately (within 10 min) after reperfusion. This dosing regimen continued once daily for a duration of 28 days, with the day of operation being defined as D1 (Day 1). A total of 5 groups were set, sham surgery group, model control group, NBP group (60 mg/kg, p.o., q.d), compound (I) low dose p.o. group (6 mg/kg, p.o., q.d), and a compound (I) high dose p.o. group (20 mg/kg, p.o., q.d). During administration, all animals were subjected to grid walking tests (D7, D14, D21, and D28, 4 times in total) and novel object recognition tests (adaptation for novel object recognition on D26, test on D27). After the completion of the 28-day dosing period, all surviving animals in the study were euthanized, and their brains were rapidly collected for pathological analysis. (3) Pathological examination: 1) the restoration range: samples with a restoration area range of >30% are considered to be good in recovery, while samples with a restoration area range of ≤30% are considered to be poor in recovery. […] In addition, for the compound (I) low dose group and the compound (I) high dose group, the proportion values of animal samples having >10 erythrocyte-containing blood vessels in the restoration area were 100% and 92.3%, respectively, both being no less than 90%.

[2] = Pharmacokinetic test in rats; format: in vivo, rat; details: male SD rats
Method: Male SD rats (weighing 180-260 g) were administered with compound (I) at a dose of 1.0 mg/kg by tail vein injection and at a dose of 10.0 mg/kg orally. Each group consisted of 3 animals. The solvent for administration was a solution of 5% DMSO+5% polyethoxylated castor oil (Cremophor EL) in normal saline. The rats were fasted for about 12 h before administration and were given ad libitum access to food 4 h after administration, and water was available all the time. Blood was collected from the orbit at about 0.2 mL before administration and 5 min, 15 min, 30 min, 1 h, 2 h, 4 h, 6 h, 8 h, and 24 h after administration. The samples were placed in EDTA-K2 anticoagulant EP tubes in an ice bath, and subjected to low-speed centrifugation at 4° C. and 3500 rpm for 10 min to isolate plasma, which was then stored at −20° C. before analysis. The concentration of compound (I) in the plasma was quantified by liquid chromatography-tandem mass spectrometry (LC-MS/MS). Pharmacokinetic parameters were calculated from the analysis results of the samples using WinNonlin software.

[3] = Distribution in brain tissues of rats (plasma and brain concentration); format: in vivo; details: rat, po, male SD rats, 20 mg/kg p.o.
Method: Plasma and brain tissue samples were collected from the animals at 0.5 h, 1 h, 4 h, and 24 h after administration. Collection of plasma: 0.2 mL of whole blood was collected by using an EP tube containing EDTA-K2 and centrifuged at 3500 g for 10 min, and then the upper plasma was collected and stored at −20° C. Collection of brain tissue: after the animals were euthanized, a proper amount of brain tissues were weighed out and homogenized with methanol in water (80%, w/v) at a ratio of 1:4. The concentration of compound in the plasma and brain tissue samples was quantified by liquid chromatography-tandem mass spectrometry (LC-MS/MS).

[4] = tested on: Middle cerebral artery occlusion (MCAO) models of SD rats; assay: Rat cerebral stroke model (MCAO), 28 days, novel object recognition test; format: in vivo; details: 60 mg/kg p.o. q.d, Mean ± SD
Method: (§1) Middle cerebral artery occlusion (MCAO) models of SD rata were constructed by using the suture occlusion method. The rats were administered with the test compound for 28 consecutive days. The pharmacodynamic evaluation on the test compound for cerebral stroke was obtained based on general observation and neurobehavioral assessment.
(§2) After anesthesia induction with 3.0% isoflurane in SD rats (240-280 g), the operation was performed and the right common carotid artery (CCA), and the right-side neck area was dissected to reveal the right common carotid artery (CCA), external carotid artery (ECA) and internal carotid artery (ICA). The ECA was ligated. The ICA was temporarily occluded. Sutures were threaded at both the proximal end and the distal end of CCA. The distal end was securely ligated, and a loosely tied knot was placed at the proximal end. A small incision was made on the CCA between these two sutures. A No. 4-0 suture was inserted through the incision of CCA and slowly and gently pushed into the ICA. The threading was stopped temporarily when reaching the artery clamp of ICA. The pre-ligation suture was further tightened. The artery clamp blocking the blood flow in the ICA was removed, allowing the suture occlusion to be advanced into the ICA until it entered the intracranial region. […] The insertion was stopped at the moment, and the time was recorded. The artery clamp on the CCA was removed and the incision was closed after no active bleeding was observed. The ischemic rats were placed at room temperature to keep their body temperature at 37° C., and anesthesia induction could be carried out 120 min later. The suture was slowly and gradually withdrawn when the rats were maintained under anesthesia, so that the proximal end of the suture returned to the ECA, thereby initiating reperfusion of the middle cerebral artery. Animals received the designated dosage immediately (within 10 min) after reperfusion. This dosing regimen continued once daily for a duration of 28 days, with the day of operation being defined as D1 (Day 1). A total of 5 groups were set, sham surgery group, model control group, NBP group (60 mg/kg, p.o., q.d), compound (I) low dose p.o. group (6 mg/kg, p.o., q.d), and a compound (I) high dose p.o. group (20 mg/kg, p.o., q.d). During administration, all animals were subjected to grid walking tests (D7, D14, D21, and D28, 4 times in total) and novel object recognition tests (adaptation for novel object recognition on D26, test on D27). After the completion of the 28-day dosing period, all surviving animals in the study were euthanized, and their brains were rapidly collected for pathological analysis.

[5] = rats, value in literature, cited from earlier work
[6] = tested on: Middle cerebral artery occlusion (MCAO) models of SD rats; assay: Rat cerebral stroke model (MCAO), 28 days, grid walking test; format: in vivo; details: 60 mg/kg p.o. q.d, Mean ± SD
Method: as §1, §2

[7] = Pharmacokinetics of 3-n-butylphthalide in rat plasma (value in literature); format: in vivo; details: rats, p.o. 60 mg/kg vs i.v. 10 mg/kg; calculated based on the literature value of AUC0-inf
[8] = brain, read-out: Measured value in brain tissues Concentration
[9] = plasma, read-out: Measured value in plasma Concentration

SMILES: CCC/C(O)=C1/C(=O)Oc2ccccc21 [Compound (I), (Z)-3-(1-hydroxybutylidene)benzofuran-2 (3H)-one]
- Number of animals with >10 erythrocyte-containing blood vessels ([1]; high dose 20 mg/kg p.o. q.d 28 days, N = 13, infarction restoration area, 20 mg/kg): 12**
- Number of animals with >10 erythrocyte-containing blood vessels ([1]; high dose 20 mg/kg p.o. q.d 28 days, N = 13, infarction restoration area, listed as compound (I), 20 mg/kg): 12
- Number of animals with >10 erythrocyte-containing blood vessels ([1]; low dose 6 mg/kg p.o. q.d 28 days, N = 12, infarction restoration area, 6 mg/kg): 12**
- Number of animals with >10 erythrocyte-containing blood vessels ([1]; low dose 6 mg/kg p.o. q.d 28 days, N = 12, infarction restoration area, listed as compound (I), 6 mg/kg): 12
- F ([2]; p.o. 10 mg/kg vs i.v. 1 mg/kg): 144.2%
- AUC0-inf ([2]; rat, iv, i.v. 1 mg/kg, plasma): 59200 ng·h/mL
- AUC0-t ([2]; rat, iv, i.v. 1 mg/kg, plasma): 52500 ng·h/mL
- MRT inf ([2]; rat, iv, i.v. 1 mg/kg, plasma): 9.8 h
- half-life ([2]; rat, iv, i.v. 1 mg/kg, plasma): 7.5 h
- AUC0-inf ([2]; rat, po, p.o. 10 mg/kg, plasma): 854000 ng·h/mL
- AUC0-t ([2]; rat, po, p.o. 10 mg/kg, plasma): 703000 ng·h/mL
- Cmax ([2]; rat, po, p.o. 10 mg/kg, plasma): 56500 ng/mL
- MRT inf ([2]; rat, po, p.o. 10 mg/kg, plasma): 13.2 h
- Tmax ([2]; rat, po, p.o. 10 mg/kg, plasma): 0.5 h
- half-life ([2]; rat, po, p.o. 10 mg/kg, plasma): 9.6 h
- concentration at 0.5 h [3, 8]: 8730 ng/g
- concentration at 1 h [3, 8]: 5730 ng/g
- concentration at 4 h [3, 8]: 5030 ng/g
- concentration at 24 h [3, 8]: 285 ng/g
- concentration at 0.5 h [3, 9]: 241000 ng/mL
- concentration at 1 h [3, 9]: 192000 ng/mL
- concentration at 4 h [3, 9]: 182000 ng/mL
- concentration at 24 h [3, 9]: 23500 ng/mL

SMILES: CCCCC1OC(=O)c2ccccc21 (stereo not drawn) [NBP, 3-n-butylphthalide]
- Sniffing time Familiar object ([4]; model control 2.70 ± 2.22): 1.60 ± 1.01 S
- Sniffing time Novel object ([4]; model control 3.82 ± 3.40): 4.94 ± 3.60 S
- Recognition index Familiar object (FRI) ([4]; model control 45.19 ± 21.94): 29.03 ± 22.57%
- Recognition index Novel object (NRI) ([4]; model control 54.81 ± 21.94): 70.97±22.57%
- Number of samples Restoration area > 30% ([1]; 60 mg/kg p.o. q.d 28 days, N = 14, model control 3 of 17): 3
- Number of samples Restoration area ≤ 30% ([1]; 60 mg/kg p.o. q.d 28 days, N = 14, model control 14 of 17): 11
- Number of animals with ≤10 erythrocyte-containing blood vessels ([1]; 60 mg/kg p.o. q.d 28 days, N = 15, infarction restoration area, model control 10 of 17): 1
- Proportion of samples having >10 erythrocyte-containing blood vessels ([1]; 60 mg/kg p.o. q.d 28 days, model control 41.2): 93.3%
- Proportion of samples showing good recovery ([1]; 60 mg/kg p.o. q.d 28 days, restoration area >30%, model control 17.6): 21.4%
- AUC0-inf ([5]; i.v. 10 mg/kg): 8620.0 ng·h/mL
- AUC0-t ([5]; i.v. 10 mg/kg): 7230.0 ng·h/mL
- MRTinf ([5]; i.v. 10 mg/kg): 2.4 h
- T1/2 ([5]; i.v. 10 mg/kg): 2.2 h
- AUC0-inf ([5]; p.o. 60 mg/kg): 8560.0 ng·h/mL
- AUC0-t ([5]; p.o. 60 mg/kg): 7110.0 ng·h/mL
- Cmax ([5]; p.o. 60 mg/kg): 2900.0 ng/mL
- MRTinf ([5]; p.o. 60 mg/kg): 3.8 h
- T1/2 ([5]; p.o. 60 mg/kg): 2.83 h
- Tmax ([5]; p.o. 60 mg/kg): 0.7 h
- Misstep frequency ([6]; 1 W after operation, model control 7.24 ± 3.59): 7.37±3.03 times
- Misstep frequency ([6]; 2 W after operation, model control 5.35 ± 4.40): 8.10 ± 2.97 times
- Misstep frequency ([6]; 3 W after operation, model control 4.09 ± 3.140): 6.27 ± 2.890 times
- Misstep frequency ([6]; 4 W after operation, model control 1.59 ± 0.84): 2.10 ± 1.46 times
- concentration at 0.5 h [3, 8]: 28.5 ng/g
- concentration at 1 h [3, 8]: 22.8 ng/g
- concentration at 4 h [3, 8]: 10.2 ng/g
- concentration at 0.5 h [3, 9]: 26 ng/mL
- concentration at 1 h [3, 9]: 19.1 ng/mL
- concentration at 4 h [3, 9]: 7.2 ng/mL
- concentration at 24 h [3, 9]: 1.7 ng/mL
- F [7]: 16.6* %
